Measured values published in PubChem BioAssay AID540268 (Broad Institute, 2011).
Where “and” joins values, the source holds several entries; their conditions need not be identical. Equal values may be shown once. Calls of active or inactive are those of the source. No rule for the calls is given here.

Assay: reduced viability of parasite-Hsp90 expressing yeast – ATP luminescence, 48 h, cherry-picked samples, anti-malarial Hsp90 inhibitor project, dose response (AID 540268);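 as to activity change, negative = inhibition: 0% = neutral control wells and -100% = positive control wells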
Conditions: yeast expressing the parasite Hsp90, ATP luminescence; for activity change, negative = inhibition: at 26 µM (top of the series)

SMILES	AC50	activity change, negative = inhibition
Cc1ccc2c(c1C)-c1c(ccc(C)c1C)C(=O)C2=O	2.67 µM	
Cc1c(C)c2cccnc2c2ncccc12	4.22 µM	
COc1ccc2c(c1)c(=Cc1ccc(N(C)C)cc1)c1cc(-c3ccccc3)[n+](C)n12	6.32 µM	
O=C(C=Cc1cccc(O)c1)c1ccccc1O	1.89 µM	
Oc1ccc(Br)cc1/C=N/Nc1ccccn1	2.67 µM	
N#C/C(=C/c1ccc(O)cc1)C(=O)NCc1ccc(Cl)cc1		10.6% (inactive)
Cc1ccc(S(=O)(=O)Nc2ccc3ccccc3c2[N+](=O)[O-])cc1	7.36 µM	
C=CC(n1cncn1)C(O)(c1ccccc1)c1ccccc1 (stereo not given)	1.03 µM	
O=C1CC(N2CCCN(C3CC(=O)N(c4ccc(F)cc4)C3=O)CC2)C(=O)N1c1ccc(F)cc1 (stereo not given)	3.49 µM	
Cc1cc(C2CCCCC2)n(O)c(=O)c1	1.19 µM	
Cc1ccc(N=Nc2ccc(O)cc2)c(Br)c1	8.33 µM	
O=S1(=O)Nc2c(ccc3cccnc23)-c2ccccc21	0.894 µM	
CCOC(=O)c1ccc(N2C(=O)CC(N(C)CCc3ccc(OC)c(OC)c3)C2=O)cc1 (stereo not given)	3.14 µM	
Cc1ccccc1Oc1cc(-n2ncc(Cl)c(Cl)c2=O)ncn1	1.11 µM	
O=C(/C=C/c1ccccc1)c1cc(Br)ccc(=O)c1O	1.51 µM	
CC(NC(=O)c1ccc(Br)cc1)c1ccc2c(c1)CCCC2 (stereo not given)	1.37 µM	
Cc1c(N=Cc2cc(Br)cc(Br)c2O)cccc1C(=O)O	3.06 µM	
Cc1ccccc1CS(=O)(=O)c1ncc(Cl)c(C(=O)Nc2ccc(F)cc2)n1	4.06 µM	
Oc1ccc(C=NN=C2c3ccccc3-c3ccccc32)c(O)c1	1.86 µM	
O=C(NNC1=C(C(=O)C(F)(F)F)CCC1)c1ccc(Br)cc1	0.759 µM	
COc1ccc(NC(=O)/C(Cl)=C(/Cl)S(=O)Cc2ccc(Cl)cc2)cn1 (stereo not given)	0.837 µM	
S=C1SCN(Cc2cccnc2)CN1Cc1cccnc1	4.07 µM	
O=C(NN1C(=O)/C(=C/c2ccc(O)c([N+](=O)[O-])c2)SC1=S)c1ccccc1Cl	4.13 µM	

SMILES	AC50	activity change, negative = inhibition
COc1ccc(OC)c(N2C(=O)NC(=O)/C(=C/c3ccc([N+](=O)[O-])s3)C2=O)c1	4.26 µM	
Oc1ccc(Cl)cc1Cc1cc(Cl)ccc1O	5.41 µM	
CN1CCc2nc3sc(C(=O)C45CC6CC(CC(C6)C4)C5)c(N)c3cc2C1	0.502 µM	
COC(=O)C1CCN(C2CC(=O)N(c3cc(C)cc(C)c3)C2=O)CC1 (stereo not given)	7.68 µM	
CC(C)(C)C(=O)NC(=S)NNC(=O)c1sc2ccccc2c1Cl	7.72 µM	
COc1ccc(C(C[N+](=O)[O-])c2c(C)[nH]n(-c3ccccc3)c2=O)cc1 (stereo not given)	7.77 µM	
O=C(/C=C/c1cccc([N+](=O)[O-])c1)c1ccco1	4.27 µM	
Nc1cccc(Oc2c(F)c(F)c(Oc3cccc(N)c3)c(F)c2F)c1	9.03 µM	
COc1ccc(N2CCN(C(=O)c3ccc(Br)cc3)CC2)c([N+](=O)[O-])c1	0.497 µM	
Clc1ccc(C(c2ccc(Cl)cc2)n2cc[n+](CC(OCc3ccc(Cl)cc3Cl)c3ccc(Cl)cc3Cl)c2)cc1 (stereo not given)	5.47 µM	
Cc1c(C(=O)N(Cc2ccccc2)Cc2cccs2)cnn1-c1ccc(Cl)cc1	5.05 µM	
COc1ccc2c(c1)[C@H]1[C@H](CO2)[C@H](c2ccccc2)[C@]2(C)C(=O)Nc3ccc(Br)cc3C(=O)N12	1.74 µM	
O=[N+]([O-])c1ccc(O)c2ncccc12	1.66 µM	
N/C(Cc1ccc(Cl)c(Cl)c1)=N\OC(=O)c1ccc(Br)o1		66.7% (inactive)
N/C(=N\OC(=O)c1ccc2ccccc2c1)c1ccccc1Cl	4.46 µM	
Cc1cccc(N=C2c3cc([N+](=O)[O-])ccc3-c3c2cc([N+](=O)[O-])cc3[N+](=O)[O-])c1	9.02 µM	
O=S(=O)(NC1CCCCCC1)c1ccc(Br)s1	3.13 µM	
O=[N+]([O-])c1cc(/C=N/O)ccc1Oc1ccccc1Cl	2.86 µM	
COc1ccc(N=Cc2cc(Cc3ccccc3Cl)cc([N+](=O)[O-])c2O)cc1OC	1.5 µM	
NC(=O)C1CCN(C2CC(=O)N(c3ccc(F)c(Cl)c3)C2=O)CC1 (stereo not given)	1.67 µM	
COc1ccc(Cl)cc1C(Nc1cccnc1)c1ccc2cccnc2c1O (stereo not given)	1.35 µM	
c1ccc(-c2cccc(-c3ccccn3)n2)nc1	1.03 µM	
O=C1/C(=C\c2ccc(Cl)cc2)CCC1CNc1ccc(Cl)cc1 (stereo not given)	< 0.195 µM	

SMILES	AC50	activity change, negative = inhibition
O=C1C(F)=CC(COC(c2ccccc2)(c2ccccc2)c2ccccc2)OC1n1cc(F)c(=O)[nH]c1=O (stereo not given)	0.718 µM	
COc1cc(SC)ccc1C(=O)Nc1nc2ccccc2[nH]1	1.96 µM	
COc1ccc(NC2CCN(C3CC(=O)N(c4ccc(F)c(Cl)c4)C3=O)CC2)cc1 (stereo not given)	2.61 µM	
CC(=NNC(=S)Nc1ccccc1Cl)c1ccccn1	3.91 µM	
Oc1ccc(-c2nc3ccc4ccccc4c3c3c2CCC3)cc1O	8.29 µM	
Cc1ccc(N2C(=O)C3C4C=CC(CNC(=S)N5CCN(c6cccc(C)c6)C(C)C5)(O4)C3C2=O)cc1 (stereo not given)	4.65 µM	
O=C1C2(Cl)C3(Cl)C4(Cl)C(Cl)(Cl)C5(Cl)C3(Cl)C1(Cl)C5(Cl)C24Cl (stereo not given)	2.93 µM	
O=C(CCSc1ccc(Br)cc1)c1ccc(O)cc1	3.64 µM	
O=C1/C(=C\c2ccc(Cl)c(Cl)c2)CN(C(=O)CCN2CCOCC2)C/C1=C/c1ccc(Cl)c(Cl)c1	3.5 µM	
CCCCCCCCCCCCCCCC[n+]1ccccc1	4.03 µM and 3.43 µM	
O=C(Oc1c(Cl)cc(Cl)c2cccnc12)c1ccco1	0.696 µM	
CCN(CC)S(=O)(=O)c1cccc(C(=O)NCC(c2ccccc2)N(C)C)c1 (stereo not given)	3.92 µM	
O=[N+]([O-])c1cnc(Sc2ccncn2)s1	3.02 µM	
CCOC(=O)c1ccc(N2C(=O)CC(N3CCC(Nc4ccc(F)cc4)CC3)C2=O)cc1 (stereo not given)	4.58 µM	
Nc1ncnc2c1ncn2C1OC(COP(=O)(O)O)C(O)C1O (stereo not given)	2.27 µM	
O=C(C#Cc1cccc([N+](=O)[O-])c1)c1ccccc1	0.36 µM	
O=C1C=CC(=O)N1c1ccc(O)cc1	1.44 µM	
Cc1c(C(=O)NCCSCc2cccc(C(F)(F)F)c2)cnn1-c1ccc(Cl)cc1	8.59 µM	
O=C(N/N=C/c1sc2ccccc2c1O)c1cccc2ccccc12	17 µM	
Cc1ccc(C(=O)N2CCN(c3ccccc3Cl)CC2)cc1[N+](=O)[O-]	4.09 µM	
O=C1[C@@H]2C(c3cccnc3)=NO[C@@H]2C(=O)N1c1ccc(Br)cc1	3.1 µM	
Oc1ccc(/C=C/c2ccc3cccc(O)c3n2)cc1Br	4.26 µM	
COc1ccc(OC)c(NC(=O)c2nc(S(=O)(=O)Cc3ccccc3)ncc2Cl)c1	4.3 µM	

SMILES	AC50	activity change, negative = inhibition
COc1ccc(-c2nnc3n(CCc4ccccc4)c(=O)c4ccccc4n23)c(OC)c1	8.97 µM	
CCN(CC)C(=S)SSC(=S)N(CC)CC	4.55 µM	
O=C(C#Cc1ccccc1)c1ccco1	1.95 µM	
Cc1cc(N=Nc2ccc3ccccc3c2)ccc1O	2.93 µM	
Cc1ccc(NC(=O)c2cc(N3C(=O)C=CC3=O)ccc2N2CCOCC2)cc1Cl	< 0.195 µM	
Cc1ccc(OCC(=O)NNC(=S)NC(=O)C2CC2)c(C)c1	4.16 µM	
Cc1nnc(N=c2ssnc2Cl)o1	1.03 µM	
CCCC(=O)NC(c1ccco1)c1cc(Cl)c2cccnc2c1O (stereo not given)	4.36 µM	
O=c1c2ccccc2nc(-c2ccc(-c3ccccc3)cc2)n1-c1ccncc1	5.21 µM	
O=C(c1ccc(Cl)cc1)N1CCN(c2ccc(F)cc2)CC1	4.47 µM	
F[B-](F)(F)c1cc2cc(Br)ccc2s1	6.2 µM	
Oc1ccc(/C=N/N(Cc2ccccc2)c2ccccc2)cc1	8.09 µM	
OC(CNCCC1C=Nc2ccccc21)Cn1c2ccc(Cl)cc2c2cc(Cl)ccc21 (stereo not given)	7.56 µM	
CCN1/C(=C/c2ccc3cc(C)ccc3[n+]2CC)Sc2ccccc21	8.11 µM	
CC(C)N1C(=O)/C(=C\c2nc3ccccc3c(=O)[nH]2)c2ccccc21	6.47 µM	
CCCCCCCCCCCCCCCC(=O)OC(CC(=O)O)C[N+](C)(C)C (stereo not given)	1.23 µM	
O=C(N/N=C/c1cc(Cl)c(O)c(Cl)c1)c1cc2c(ccc3ccccc32)o1	3.54 µM	
O=C1C2C3C=CC(CNS(=O)(=O)c4ccccc4[N+](=O)[O-])(O3)C2C(=O)N1c1ccccc1 (stereo not given)	10.3 µM	
O=C(c1cccs1)c1no[n+]([O-])c1C(=O)c1cccs1	2.18 µM	
Oc1cc(Cl)c(Cl)c(Cl)c1Cl	1.7 µM	
Cc1ccc(OCC(=O)NNC(=S)NC(=O)C(C)(C)C)c(Br)c1	5.05 µM	
O=C(Nc1nc(-c2ccccn2)cs1)c1cc2ccccc2o1	4.24 µM	
CCCCCCCCC/C(=N\O)c1ccccn1	3.65 µM	

SMILES	AC50	activity change, negative = inhibition
C=CC(C)(C)c1c(O)c(CC=C(C)C)c(O)c2c(=O)c3ccc(O)c(O)c3oc12	6.76 µM	
c1cnc2c(c1)ccc1cccnc12	6.61 µM	
O=C(NCC1CCCO1)c1cc([N+](=O)[O-])ccc1N1CCC(Cc2ccccc2)CC1 (stereo not given)	4.06 µM	
O=[N+]([O-])c1ccc(C=Nc2cccc3ccccc23)s1	8.33 µM	
Cc1ccc(C(=O)c2coc3c2C(=O)C(=O)c2ccccc2-3)cc1	8.16 µM	
CCc1ccc(-c2cc(C(=O)N3N=C(C(F)F)CC3(O)C(F)F)c3ccccc3n2)cc1 (stereo not given)	3.24 µM	
N#C/C(=C\c1ccc([N+](=O)[O-])o1)C(=O)Nc1ccc(F)cc1	0.33 µM	
CCCCCCOC(=O)Sc1nc2ccccc2o1	1.57 µM	
O=C(/C=C/c1cc(Br)ccc1O)c1ccco1	5.35 µM	
CC(=NNC(=S)N1CC2CCC(CC2)C1)c1ccncn1	2.36 µM	
Cc1cc([N+](=O)[O-])c2ccccc2[n+]1[O-]	< 0.195 µM	
Cc1cc(C(C)(C)CC(C)(C)C)ccc1OCCOCC[N+](C)(C)Cc1ccccc1	7.8 µM	
Cc1cc(Cl)ccc1C(=O)C1CCCN(C(=O)c2cncs2)C1 (stereo not given)	4.62 µM	
CC1CC(C)C(=NNC(N)=O)C(C(O)CC2CCC(=O)NC2=O)C1 (stereo not given)	< 0.195 µM	
O=S(=O)(NC1CC2CCC1C2)c1ccc(Br)cc1 (stereo not given)	0.86 µM	
CN(C)/C=C/C(=O)c1ccc(N2CCN(c3ncc(C(F)(F)F)cc3Cl)CC2)cc1	4.16 µM	
O=C(O)c1ccccc1NC(c1ccccc1)c1ccc2cccnc2c1O (stereo not given)	4.87 µM	
O=[N+]([O-])c1c(Nc2ccccn2)cc(Cl)c2nonc12	0.803 µM	
CC1=NOC(=O)/C1=C\c1ccc(-c2ccc(Br)cc2)o1	4.51 µM	
COc1cc(N=Nc2ccc3ccccc3c2)ccc1O	8.61 µM	
COc1ccc2sc(-c3ccccc3OC)c(-c3ccc(O)cc3)c2c1	8.46 µM	
O=C(N/N=C/c1cc2c3c(c1O)CCCN3CCC2)c1ccccc1O	1.42 µM	
CC(C)(C)c1nnc(N/N=C/c2cc(Br)ccc2O)n(N)c1=O	4.92 µM	
